The values that follow come from PMC6150325 (Molecules : A Journal of Synthetic Chemistry and Natural …, 2017).

Several values for one entry are separate records, joined by “and”; a condition that tells them apart may be missing. Identical values can stand only once. Like-named read-outs stand apart in the source and are kept apart here.

Assay [1] has as its target T1, bacterial Vibrio cholerae neuraminidase (VCNA) (Vibrio cholerae serotype O1, UniProt P0C6E9).
T1 construct: purchased Hoffmann La Roche, Basel, Switzerland
Nature of the assay: biochemical. Conditions: mean ± SD, n = 3–6.

The target in assay [2] is viral influenza A/California/04/2009 (H1N1) neuraminidase (H1N1-NA) (Influenza A virus (A/California/04/2009(H1N1)), UniProt C3W5S3). Nature of the assay: biochemical. It counts as biochemical.
Assay [3] addresses Streptococcus pneumoniae NA NanA. Conditions: cited from earlier work.
A further assay has as its system Ruminococcus gnavus NA. As to conditions: cited from earlier work.
The next assay addresses T2, bacterial VCNA (Vibrio cholerae serotype O1, UniProt P0C6E9).
T2 construct: purchased Hoffmann La Roche, Basel, Switzerland
Nature of the assay: biochemical.

T1 sequence (P0C6E9 25-781): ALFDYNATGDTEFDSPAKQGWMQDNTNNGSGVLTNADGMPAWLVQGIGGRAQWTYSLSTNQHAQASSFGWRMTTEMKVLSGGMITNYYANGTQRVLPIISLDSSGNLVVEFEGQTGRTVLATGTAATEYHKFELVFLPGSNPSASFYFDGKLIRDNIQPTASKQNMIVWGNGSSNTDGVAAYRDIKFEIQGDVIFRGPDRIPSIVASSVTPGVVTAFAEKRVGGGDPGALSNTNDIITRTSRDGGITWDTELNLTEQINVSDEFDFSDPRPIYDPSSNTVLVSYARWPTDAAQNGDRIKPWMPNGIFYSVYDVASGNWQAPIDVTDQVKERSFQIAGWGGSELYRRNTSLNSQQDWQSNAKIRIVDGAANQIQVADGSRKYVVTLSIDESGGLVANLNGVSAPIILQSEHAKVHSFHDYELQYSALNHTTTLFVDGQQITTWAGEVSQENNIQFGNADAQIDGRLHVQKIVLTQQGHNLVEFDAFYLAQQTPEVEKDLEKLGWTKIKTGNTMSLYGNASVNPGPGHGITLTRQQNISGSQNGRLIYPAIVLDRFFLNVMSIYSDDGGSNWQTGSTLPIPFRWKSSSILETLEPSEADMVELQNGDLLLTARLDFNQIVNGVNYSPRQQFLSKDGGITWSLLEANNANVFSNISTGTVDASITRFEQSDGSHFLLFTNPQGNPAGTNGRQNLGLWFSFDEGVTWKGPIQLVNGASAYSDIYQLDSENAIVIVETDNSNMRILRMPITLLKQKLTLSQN
T2 sequence (P0C6E9 25-781): as above
Method for bacterial VCNA: The median–effect concentration (Dm, a parameter analogous to the IC50 value indicating potency), the slope of the concentration–effect relationship (m, the dynamic order or the shape of dose–effect curve), and the linear regression correlation coefficient (r, a measure of data quality) were determined from the median–effect plots.
The concentration–efficiency curves of the test samples were transformed into the double-logarithmic mean action diagram (shape (m), intercepts and regression coefficients were used to determine the median effect dose Dm). Dm= 10^−(b/m)
Fraction affected (fa) and fraction unaffected (fu) by the concentration D were calculated by the median effect equation [27]: fa/fu= (D/Dm)^m
Dm is the concentration required to produce the median effect.

On to `O=C1O[C@H]2[C@H](OC(=O)c3cc(O)c(O)c(O)c3)[C@@H](OC(=O)c3cc(O)c(O)c4c3[C@@H]3C1=CC(=O)[C@](O)(O4)C3(O)O)[C@@H]1OC(=O)c3cc(O)c(O)c(O)c3-c3c(cc(O)c(O)c3O)C(=O)OC[C@H]2O1` [carpinusin], for which, in assay [1], it took 138 µM to reach half-maximal inhibition (IC50).
As for `O=C1OC[C@@H](O)[C@H]([C@@H]2OC(=O)c3cc(O)c(O)c(O)c3-c3c(O)c(O)c(O)c4c3C(=O)O[C@H]2[C@@H]4O)OC(=O)c2cc(O)c(O)c(O)c2-c2c1cc(O)c(O)c2O` [casuariin], the IC50 in assay [1] is 236 µM.
For `O=C(O[C@H]1Cc2c(O)cc(O)cc2O[C@@H]1c1ccc(O)c(O)c1)c1cc(O)c(O)c(O)c1` [catechin-3-O-gallate], the IC50 in assay [2] (IC50 (Viral)) was 1950 µM; in assay [1] it was 54.3 µM and 55 µM.
For the compound `Oc1cc(O)c2c(c1)O[C@H](c1ccc(O)c(O)c1)[C@@H](O)C2` [catechin], the IC50 in assay [2] (IC50 (Viral)) is 1070 µM and 1080 µM; in assay [1], 2050 µM.
For the compound `O=C(O[C@@H]1Cc2c(O)cc(O)cc2O[C@@H]1c1ccc(O)c(O)c1)c1cc(O)c(O)c(O)c1` [epicatechin-3-O-gallate], the half-inhibitory concentration (IC50) in assay [2] (IC50 (Viral)) is 1910 µM; in assay [1], 210 µM and 211 µM.
`Oc1cc(O)c2c(c1)O[C@H](c1ccc(O)c(O)c1)[C@H](O)C2` [epicatechin]: the half-inhibitory concentration (IC50) in assay [2] (IC50 (Viral)) was 1050 µM; in assay [1], 2310 µM.
On to `O=C(O[C@@H]1Cc2c(O)cc(O)cc2O[C@@H]1c1cc(O)c(O)c(O)c1)c1cc(O)c(O)c(O)c1` [epigallocatechin-3-O-gallate], for which the IC50 in assay [2] (IC50 (Viral)) was 1560 µM; in assay [1], 63.3 µM and 64 µM.
On to `Oc1cc(O)c2c(c1)O[C@H](c1cc(O)c(O)c(O)c1)[C@H](O)C2` [epigallocatechin], for which the half-inhibitory concentration (IC50) was 1740 µM in assay [2] (IC50 (Viral)); 1950 µM and 1960 µM in assay [1].
In the case of `O=C(O[C@H]1Cc2c(O)cc(O)cc2O[C@@H]1c1cc(O)c(O)c(O)c1)c1cc(O)c(O)c(O)c1` [gallocatechin-3-O-gallate], the IC50 in assay [2] (IC50 (Viral)) is 395 µM and 396 µM; in assay [1], 24 µM and 25 µM.
For the compound `Oc1cc(O)c2c(c1)O[C@H](c1cc(O)c(O)c(O)c1)[C@@H](O)C2` [gallocatechin], the IC50 in assay [2] (IC50 (Viral)) was 1790 µM; in assay [1], 1970 µM.
On to `O=C1O[C@H]2[C@@H]3OC(=O)c4cc(O)c(O)c(O)c4-c4c(cc(O)c(O)c4O)C(=O)OC[C@H]2O[C@@H](OC(=O)c2cc(O)c(O)c(O)c2)[C@@H]3OC(=O)c2cc(O)c(O)c3c2[C@@H]2C1=CC(=O)[C@](O)(O3)C2(O)O` [geraniin], for which the concentration for half-maximal inhibition (IC50) in assay [1] was 134 µM and 135 µM.
For `O=C1O[C@H]2[C@H](O)[C@@H](OC(=O)c3cc(O)c(O)c4c3[C@@H]3C1=CC(=O)[C@](O)(O4)C3(O)O)[C@@H]1OC(=O)c3cc(O)c(O)c(O)c3-c3c(cc(O)c(O)c3O)C(=O)OC[C@H]2O1` [granatin A], the IC50 in assay [1] is 155 µM and 158 µM.
With `CCC(CC)O[C@@H]1C=C(C(=O)O)C[C@H](N)[C@H]1NC(C)=O` [oseltamivir carboxylate], in assay [3], the Ki is 1.77 µM. Also, the IC50 in the assay with Ruminococcus gnavus NA is 30 µM.
Turning to `O=C(OCC1OC(OC(=O)c2cc(O)c(O)c(O)c2)C(OC(=O)c2cc(O)c(O)c(O)c2)C(OC(=O)c2cc(O)c(O)c(O)c2)C1OC(=O)c1cc(O)c(O)c(O)c1C1c2c(O)c(O)c(O)c3c2C(=O)OC1C(C1OC(=O)c2cc(O)c(O)c(O)c2-c2c(cc(O)c(O)c2O)C(=O)OCC1O)OC(=O)c1cc(O)c(O)c(O)c1-3)c1cc(O)c(O)c(O)c1` (stereo not drawn) [paeonianin C], the IC50 was 344 µM in assay [2] (read-out: IC50 (Viral)); 14.6 µM and 15 µM in assay [1].
`O=C1O[C@H]2[C@H](OC(=O)c3cc(O)c(O)c(O)c3)[C@@H](OC(=O)c3cc(O)c(O)c4c3[C@@H]3C1=CC(=O)C(O)(O)C3(O)O4)[C@H](OC(=O)c1cc(O)c(O)c(O)c1)O[C@@H]2COC(=O)c1cc(O)c(O)c(O)c1` (stereo partly drawn) [terchebin]: the “fold higher inhibitory potency compared to paeonianin C” value in assay [2] is given as 3.5 fold. Besides, the IC50 in assay [2] (IC50 (Viral)) is 102 µM and 101 µM; in assay [1] it was 30.4 µM and 31 µM.
As to `O=C1OCC2OC(=O)c3cc(O)c(O)c(O)c3-c3c(O)c(O)c(O)c4c3C(=O)OC(C2OC(=O)c2cc(O)c(O)c(O)c2-c2c1cc(O)c(O)c2O)C1OC(=O)c2c-4c(O)c(O)c(O)c2C1O` (stereo not drawn) [vescalagin], the half-inhibitory concentration (IC50) in assay [1] is 134 µM.
Consider `CC(=O)N[C@H]1[C@H]([C@H](O)[C@H](O)CO)OC(C(=O)O)=C[C@@H]1N=C(N)N` [zanamivir, 2,4-dideoxy-2,3-didehydro-4-guanidino-N-acetylneuraminic acid], for which the concentration for half-maximal inhibition (IC50) is 51.2 µM and 52 µM in assay [1]; 51.2 µM on bacterial VCNA; 11900 µM in the assay with Ruminococcus gnavus NA. Also, the “m (slope of the concentration–effect relationship)” value at bacterial VCNA (VCNA, median effect plot) is 0.9. For the same compound, the Ki in assay [3] was 720 µM.

Usually IC50 stands for the concentration that inhibits the measured activity by half. In general, Ki refers to the dissociation constant of the complex between target and ligand, obtained from inhibition or displacement.
